In article PMC8933826 (EBioMedicine, 2022):

Legend:
Tet(X3) = assay: biolayer interferometry; type: binding, Acinetobacter baumannii
Tet(X4) = Tet(X4) (Escherichia coli, UniProt A0A3T0V9Y5); assay: biolayer interferometry; type: binding
Tet(X4), sequence (A0A3T0V9Y5 1-385): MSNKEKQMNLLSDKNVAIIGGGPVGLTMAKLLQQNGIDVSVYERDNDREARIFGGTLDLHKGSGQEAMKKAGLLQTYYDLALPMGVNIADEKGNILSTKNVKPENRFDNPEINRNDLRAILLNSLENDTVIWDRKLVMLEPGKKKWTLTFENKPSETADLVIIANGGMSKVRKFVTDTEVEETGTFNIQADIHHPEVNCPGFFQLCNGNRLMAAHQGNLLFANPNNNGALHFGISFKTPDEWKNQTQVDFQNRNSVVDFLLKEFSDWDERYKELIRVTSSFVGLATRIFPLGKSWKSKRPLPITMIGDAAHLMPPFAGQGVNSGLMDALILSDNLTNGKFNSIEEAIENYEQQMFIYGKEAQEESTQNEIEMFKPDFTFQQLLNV

SMILES: CC1=CC(=O)c2c(O)cccc2C1=O [plumbagin]
- Kd (Tet(X3)): 200 µM
- Kd (Tet(X4)): 1600 µM
